IC50 data for one substance are collected here from paper PMC9602792, “Preclinical evaluation of the epithelial sodium channel inhibitor AZD5634 and implications on human translation” (American Journal of Physiology - Lung Cellular and …, 2022).

As usually defined, the IC50 is the point on the concentration scale where inhibition reaches its midpoint.

The subject of this assay is sheep ENaC. The assay is described as follows: Ussing chamber short-circuit current (Isc) in sheep bronchial epithelial ALI cultures. Type of assay: cell-based. To be noted: bronchial epithelial cells from healthy sheep, read-out: potency (IC50) on inhibition of ENaC (EC50 in Fig. 1B legend). The procedure:
Normal human bronchial epithelial cell (HBEC) cultures from healthy donors were procured from MatTek Corporation (Ashland, MA), grown at an ALI on Transwell permeable supports (0.4 µm polycarbonate membrane, 12 mm insert, and Costar Corning), and used to test the in vitro potency of AZD5634. Using the same protocol, sheep ALI cultures were prepared from primary bronchial epithelial cells (native sheep tracheas were obtained from Öströö Sheep Farm, Sweden, and internally processed at AstraZeneca R&D, Gothenburg, Sweden) to validate AZD5634 potency at sheep ENaC. Experiments were performed using modified Ussing chambers containing carboxygenated Krebs solution (95% O2-5% CO2) at 37°C. Cell layers were allowed to equilibrate before being voltage-clamped at 0 mV, and then briefly clamped at 10 mV to assess transepithelial electrical resistance.
All data are presented as means ± SE. Values of n refer to the number of cultures used in each group as appropriate. For normally distributed data, paired or unpaired Student’s t tests were used. For data that were not normally distributed, Mann–Whitney U test and Wilcoxon-matched pairs test were used. […] From these curves, pEC50 and Emax values were taken from which mean values were calculated.

AZD5634: the IC50 stood at 5.5 nM.
